Here are results for 3 compounds from patent US6221870A, “Ergoline derivatives and their use as somatostatin receptor antagonists” (Novartis AG, priority 1997, dated 2001).

Series [1] concerns the target T1, native rat sst1 receptors (Rattus norvegicus, UniProt P28646).
T1 construct: native rat sst1 receptors
The series is described as follows: affinity for native rat sst1 receptors (radioligand binding). To be noted: read-out: pIC50, affinity for native rat sst1 receptors (converted). The text has this: (§1) In particular the agents of the invention bind to somatostatin receptors. More particularly they are selective antagonists at Somatostatin sst1 receptors, previously called SSTR-1 receptors (see Hoyer et al., TIPS, 1995, 16; 86-88), as determined in radioligand binding and second messenger studies [see for example K Kaupmann et al., FEBS LETTERS 1993, 331: 53-59].
(§2) For all above indications the preferred compound is the compound of example 1 below.

The target in series [2] is T2, native human sst1 receptors (Homo sapiens, UniProt P30872).
T2 construct: native and recombinant human sst1 receptors
T2 sequence (P30872 whole entry): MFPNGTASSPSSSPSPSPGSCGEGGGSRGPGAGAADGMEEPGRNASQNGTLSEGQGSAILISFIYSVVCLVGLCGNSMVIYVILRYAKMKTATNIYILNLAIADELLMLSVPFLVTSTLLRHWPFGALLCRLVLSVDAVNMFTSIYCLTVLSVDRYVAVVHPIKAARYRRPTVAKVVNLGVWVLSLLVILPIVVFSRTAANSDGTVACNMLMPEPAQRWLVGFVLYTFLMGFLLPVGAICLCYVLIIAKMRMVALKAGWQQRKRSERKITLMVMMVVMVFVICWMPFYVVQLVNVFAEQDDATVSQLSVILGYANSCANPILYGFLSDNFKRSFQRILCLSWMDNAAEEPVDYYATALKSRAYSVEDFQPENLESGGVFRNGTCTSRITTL
The series is described as follows: affinity for native human sst1 receptors (radioligand binding). To be noted: read-out: pIC50, affinity for native human sst1 receptors (converted).
Description: as §1, §2

Series [3] deals with T3, recombinant human sst1 receptors (Homo sapiens, UniProt P30872).
T3 construct: expressed in transfected cells
T3 sequence (P30872 whole entry): as above
The series is described as follows: affinity for recombinant human sst1 receptors (radioligand binding). To be noted: read-out: pIC50, affinity for recombinant human sst1 receptors (converted).
Description: as §1, §2

Series [4] concerns neurotransmitter receptors. The series is described as follows: activity for a wide range of neurotransmitter receptors. Type of series: binding.
Description: as §2

In the next series the test system is intruder mouse. The series is described as follows: intruder mouse test. Type of series: in vivo. To be noted: for potency compared with the compound of example 1, intruder mouse test: standard drugs at 3-30 mg/kg s.c.
The subject of a further series is mice. The series is described as follows: Matched Pairs Situation test in mice. To be noted: for lowering of aggressive behavior (Matched Pairs Situation test), standard drugs: 3-30 mg/kg s.c.; for potency compared with the compound of example 1, Matched Pairs Situation test: standard drugs at 3-30 mg/kg s.c. The class given is in vivo, mouse.
The conditions of series [5]: known drawback; cited from earlier work.

T1 sequence (P28646 whole entry): as the sequence (P30872 whole entry) above, with S8P, S11T, P16S, S20G, G25V, G26C, A32S, A45S, T385A, T389S counted along it

With `CN1C[C@H](C(=O)N2CCN(c3cccc(=O)n3C)CC2)C[C@@H]2c3cccc4[nH]c(Br)c(c34)C[C@H]21` [Example 1, [5R, 8R, 10R]-2-Bromo-9,10-dihydro-lysergic-acid-4-(1-methyl-1H-pyrid-6-on-2-yl)-piperazine-amide], the results for the IC50 in series [1], in series [2] and in series [3] were 0.2 nM, 1 nM and 1.58 nM, respectively. Moreover, the “activity for a wide range of neurotransmitter receptors” value in series [4] was “without significant activity”. In addition, the “social withdrawal in the intruder mouse test” value in the series with intruder mouse (3-30 mg/kg p.o.) is recorded as “reverses social withdrawal”. Besides, in the series with mice (3-30 mg/kg p.o.), the “aggressive behavior in the Matched Pairs Situation test” value is “clearly lowers aggressive behavior”.
lithium: the “potency compared with the compound of example 1, intruder mouse test” value in the series with intruder mouse is given as “less potent”. Besides, in the series with mice, the “lowering of aggressive behavior (Matched Pairs Situation test), standard drugs” value is recorded as “These effects are also observed” and the “potency compared with the compound of example 1, Matched Pairs Situation test” value is listed as “less potent”. Besides, the therapeutic window entry in series [5] is recorded as “narrow therapeutic window”.
On to `NC(=O)N1c2ccccc2C=Cc2ccccc21` [carbamazepine], for which the “potency compared with the compound of example 1, intruder mouse test” value in the series on intruder mouse is given as “less potent”. Further, in the series with mice, the “lowering of aggressive behavior (Matched Pairs Situation test), standard drugs” value is listed as “These effects are also observed” and the “potency compared with the compound of example 1, Matched Pairs Situation test” value was “less potent”. Besides, the therapeutic window result in series [5] is recorded as “narrow therapeutic window”.
